Reference: US20060234906A1, “Structure of a complex of retinoblastoma protein bound to e2f, and uses thereof” (priority 2002, published 2006)
Like-named read-outs stand apart in the source and are kept apart here. Residues, ends and D or L forms follow the SMILES beside them. *: point of attachment. 5FAM = O=C1OC2(c3ccc(O)cc3Oc3cc(O)ccc32)c2ccc(C(=O)*)cc21

Tests used:
[1] = biological target: T1, pRb/Fl-E7 (Homo sapiens, UniProt P06400); experiment: Fluorescence polarization displacement binding, Fl-E7 bound to pRb; settings: fluoro-tagged peptide 400 nM pre-incubated with pRb 1 μM
T1 sequence (P06400 373-771 limits assumed): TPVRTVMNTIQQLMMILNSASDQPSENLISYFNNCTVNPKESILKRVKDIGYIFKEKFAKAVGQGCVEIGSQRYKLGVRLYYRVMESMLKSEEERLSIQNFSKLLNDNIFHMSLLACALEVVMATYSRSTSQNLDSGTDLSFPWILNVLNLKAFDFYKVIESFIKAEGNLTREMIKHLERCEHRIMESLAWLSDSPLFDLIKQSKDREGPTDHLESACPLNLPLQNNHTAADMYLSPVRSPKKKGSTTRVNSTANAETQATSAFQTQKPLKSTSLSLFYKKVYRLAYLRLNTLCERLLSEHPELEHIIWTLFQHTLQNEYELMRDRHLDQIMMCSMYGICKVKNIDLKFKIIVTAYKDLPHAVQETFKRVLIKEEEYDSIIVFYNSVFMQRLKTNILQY
Protocol: (§1) Fluoro-tagged peptide (400 nM) was pre-incubated with pRb (1 μM ) and unlabelled peptide added at the concentrations shown. Displacement binding curves were plotted (FIG. 4a), and were fitted to a one site competition binding model using Graphpad prism curve fitting software.

[2] = biological target: T2, RbAB (Homo sapiens, UniProt P06400); experiment: RbAB
T2 construct: residues 372 to 589 of the A domain and 636 to 787 of the B domain; GST (with Prescission protease site) (N, cleaved yes); engineered thrombin site (LVPRGS) at the A-domain end of the A-B linker (C, cleaved yes); engineered thrombin site (LVPRGS) at the B-domain end of the A-B linker (N, cleaved yes); made in house; host or cells: E. coli
Excerpt: (§2) Table printed on a drawing sheet, FIG. 2B
(§3) The patent's description of the figure: FIG. 2.
(§4) First copying reader's note: Binding constants of E2F fragments to the Rb constructs RbAB and RbABC; the error is printed in the same cell as the value.
(§5) Where the first naming reader finds the target: head: RbAB

[3] = biological target: T3, pRb (Homo sapiens, UniProt P06400); experiment: Competition experiment (Ni column, SDS-PAGE): E2F(409-426) against E2F(243-437) for binding to pRb; settings: qualitative competition experiment
T3 construct: His6-RbAB (residues 376-792); made in house
T3 sequence (P06400 376-792): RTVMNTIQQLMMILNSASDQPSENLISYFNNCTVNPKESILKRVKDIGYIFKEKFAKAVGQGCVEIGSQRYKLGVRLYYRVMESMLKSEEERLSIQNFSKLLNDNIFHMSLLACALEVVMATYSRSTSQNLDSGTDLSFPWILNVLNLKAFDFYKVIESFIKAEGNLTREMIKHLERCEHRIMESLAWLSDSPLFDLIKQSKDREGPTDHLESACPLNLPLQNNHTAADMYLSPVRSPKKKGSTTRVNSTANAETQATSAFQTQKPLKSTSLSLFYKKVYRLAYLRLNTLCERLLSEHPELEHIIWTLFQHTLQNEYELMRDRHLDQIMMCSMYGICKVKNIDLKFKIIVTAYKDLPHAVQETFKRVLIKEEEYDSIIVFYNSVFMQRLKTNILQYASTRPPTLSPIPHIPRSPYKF
Excerpt: The proteins used in these experiments were His6-RbABC (RESIDUES 380-929); MW 66.07 kDa, non-tagged RbAB (residues 372-787); MW 48.67 KDa, are His6-RbAB (residues 376-792); MW 49.86 KDa, E2F(243-437); MW 21.45 KDa HPV E7 (residues 17-98); MW 9.38 KDa and E2F(409-426); MW 2.12 KDa. Protein concentrations were carefully determined by u.v. spectroscopy and confirmed by ITC titrations. The small acidic E2F proteins stain much weaker than Rb with Coomassie on SDS-PAGE. For all gel lanes contained a final RbAB concentration of ca. 7 μM. After equilibration with E2F(243-437) and E2F(409-426) the samples were loaded onto a 1.0 ml Ni column and washed with 7×0.5 ml of loading buffer (50 mM Tris pH 7.5, 200 mM NaCl & 10 mM Imidazole). The samples were then eluted with 7×0.5 ml elution buffer (50 mM Tris, pH 7.5, 200 mM NaCl, 200 mM Imidazole). After volume correction samples were boiled in SDS loading buffer and run on a 4-12% SDS PAGE. For the two pRb proteins and E2F(243-437) were mixed at 40 μM in a final volume of 0.5 ml. After equilibration for 2 hrs the mixture was loaded onto 1 ml Ni beads in a small column, washed with 7×0.5 ml of loading buffer (50 mM Tris, pH 7.5, 200 mM NaCl, 10 mM Imidazole), eluted using 7×0.5 ml elution buffer (50 mM Tris, pH 7.5, 200 mM NaCl, 200 mM Imidazole). Samples, after correcting for volume were boiled in SDS sample buffer and run on a 4-12% SDS gel.

[4] = biological target: T4, RbABC (Homo sapiens, UniProt P06400); experiment: RbABC
T4 construct: His6-RbABC (RESIDUES 380-929); made in house; host or cells: E. coli
Excerpt: as §2, §3, §4
(§6) Where the first naming reader finds the target: head: RbABC

[5] = biological target: T5, pRb/Fl-E2F (Homo sapiens, UniProt P06400); experiment: Fluorescence polarization displacement binding, Fl-E2F bound to pRb; settings: fluoro-tagged peptide 400 nM pre-incubated with pRb 1 μM
T5 sequence (P06400 373-771 limits assumed): T1 sequence (P06400 373-771 limits assumed)
Protocol: as §1

[6] = biological target: T6, pRb (Homo sapiens, UniProt P06400); experiment: Fluorescence polarization titration binding of fluoro-labelled peptides with pRb
T6 sequence (P06400 373-771 limits assumed): T1 sequence (P06400 373-771 limits assumed)
Excerpt: Synthetic peptides were synthesised and fluoro-tagged using either N-terminal labelling with 5 carboxyfluorescein succinimidyl ester or cysteine labelling with single isomer tetramethylrhodamine-5-maleimide. […] Fluorescein fluorescence measured at λexcite=485 and λemit=520 nm
Rhodamine fluorescence measured at λexcite=545 and λemit=580 nm
Measurements were made using BMG Fluorostar plate reader fitted with polarization optic. […] Data were fitted to a one site binding model using Graphpad prism.
pRb titration curves were performed in 96-well black plates, in a total reaction volume of 100 μL. Doubling dilutions from 10 μM stock of pRb were made in binding buffer (50 mM Tris HCl, pH7.0, 100 mM NaCl, 10 mM DTT, 0.05% NP-40) and 80 μL added in triplicate to wells. 20 μL of 2 μM fluoro-peptide was added and pipetted up and down to mix. The plate was read after 1 hr incubation at room temperature.

[7] = biological target: T7, RbAB (Homo sapiens, UniProt P06400); experiment: RbAB; remark: listed apart in the source
T7 construct: residues 372 to 589 of the A domain and 636 to 787 of the B domain; GST (with Prescission protease site) (N, cleaved yes); engineered thrombin site (LVPRGS) at the A-domain end of the A-B linker (C, cleaved yes); engineered thrombin site (LVPRGS) at the B-domain end of the A-B linker (N, cleaved yes); made in house; host or cells: E. coli
T7 sequence (P06400 whole entry, looked up): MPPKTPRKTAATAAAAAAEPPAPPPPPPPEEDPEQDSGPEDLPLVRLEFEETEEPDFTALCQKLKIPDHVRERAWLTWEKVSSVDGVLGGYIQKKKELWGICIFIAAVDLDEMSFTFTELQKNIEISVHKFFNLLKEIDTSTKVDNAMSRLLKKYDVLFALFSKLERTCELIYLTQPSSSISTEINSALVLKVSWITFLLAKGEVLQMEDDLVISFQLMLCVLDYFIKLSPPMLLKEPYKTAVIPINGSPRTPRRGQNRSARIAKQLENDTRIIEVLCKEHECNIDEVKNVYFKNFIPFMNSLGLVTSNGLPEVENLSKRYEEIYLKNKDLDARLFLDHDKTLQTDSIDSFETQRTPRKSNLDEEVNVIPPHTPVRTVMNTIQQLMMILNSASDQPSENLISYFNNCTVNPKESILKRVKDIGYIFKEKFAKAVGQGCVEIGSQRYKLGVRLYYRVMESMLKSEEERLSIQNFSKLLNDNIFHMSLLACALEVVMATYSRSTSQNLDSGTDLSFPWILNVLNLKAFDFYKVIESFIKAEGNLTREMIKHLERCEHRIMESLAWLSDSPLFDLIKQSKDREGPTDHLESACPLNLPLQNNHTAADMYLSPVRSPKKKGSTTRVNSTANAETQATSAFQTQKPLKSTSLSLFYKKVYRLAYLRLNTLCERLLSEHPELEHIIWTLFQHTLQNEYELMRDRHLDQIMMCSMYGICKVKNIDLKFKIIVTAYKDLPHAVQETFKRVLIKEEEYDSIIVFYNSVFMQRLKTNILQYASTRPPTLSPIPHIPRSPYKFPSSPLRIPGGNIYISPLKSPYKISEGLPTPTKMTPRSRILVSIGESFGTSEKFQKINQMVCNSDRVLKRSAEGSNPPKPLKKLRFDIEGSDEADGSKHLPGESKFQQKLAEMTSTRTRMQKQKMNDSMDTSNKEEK
Excerpt: as §2, §3, §4, §5

[8] = biological target: T8, RbABC (Homo sapiens, UniProt P06400); experiment: RbABC; remark: listed apart in the source
T8 construct: His6-RbABC (RESIDUES 380-929); made in house; host or cells: E. coli
T8 sequence (P06400 whole entry, looked up): T7 sequence (P06400 whole entry, looked up)
Excerpt: as §2, §3, §4, §6

[9] = biological target: T9, recombinant pRb A/B domains with E2F(409-426) peptide (Homo sapiens, UniProt P06400); experiment: Fluorescence polarization screen (384-well), fluorescein-E2F with pRb, screen controls; format: binding; settings: 1 μM pRb, 0.4 μM fluorescein-E2F
T9 sequence (P06400 373-771 limits assumed): T1 sequence (P06400 373-771 limits assumed)
Excerpt: Based on the crystal structure defined by the atomic co-ordinates in Annex 1, an FP screen was configured for the interaction of recombinant pRb A/B domains with E2F(409-426) peptide (see FIG. 1B). In addition, a second peptide binding site E7, see FIG. 1B), distant from the E2F binding pocket, was utilized as an internal control for non-specific inhibitors. Fluorophores in the form of fluorescein and rhodamine labelled peptides were synthesised and were used in a primary screen and hit confirmation.
The assay was optimised in 384-well black-plates (Matrix) and automated using a Beckman Fx liquid handling robot. 1 μM pRb in 50 mM Tris HCl, pH7.0, 100 mM NaCl, 10 mM DTT, 0.05% NP-40 was mixed with 40 μM compound (4% DMSO) and 0.4 μM fluorescein-E2F (final concentrations).
Polarized and depolarized signal from fluorescein-E2F with and without pRb present are shown in FIG. 5 (solid and open circles respectively). Specific disruption of binding by E2F protein and peptide are also shown. […] Addition of unlabelled-E2F at a concentration which gave 50% inhibition is clearly separated from the control populations. Hits were identified as compounds which reduced the polarization signal to less than mean-3sd of the fluorescein-E2F: pRb control.

CC[C@H](C)[C@H](NC(=O)CNC(=O)[C@H](CCC(=O)O)NC(=O)CNC(=O)[C@H](CCC(=O)O)NC(=O)[C@H](CCC(=O)O)NC(=O)[C@H](CC(C)C)NC(=O)CNC(=O)[C@H](Cc1ccccc1)NC(=O)[C@H](Cc1c[nH]cn1)NC(=O)[C@H](Cc1ccc(O)cc1)NC(=O)[C@H](CC(=O)O)NC(=O)[C@@H](N)CC(C)C)C(=O)N[C@@H](CCCNC(=N)N)C(=O)N[C@@H](CC(=O)O)C(=O)N[C@@H](CC(C)C)C(=O)N[C@@H](Cc1ccccc1)C(=O)N[C@@H](CC(=O)O)C(=O)O [E2F(409-426)] (H-LDYHFGLEEGEGIRDLFD-OH)
displacement of Fl-E7 from pRb [1]: without disrupting F1-E7 binding | Kd [2]: 340 ± 20 nM | molar excess required to 50% compete with E2F(243-437) for binding to pRb [3]: 15-to 30 fold | Kd [4]: 300 ± 30 nM | displacement of Fl-E2F from pRb [5]: displace Fl-E2F

CC[C@H](C)[C@H](NC(=O)CNC(=O)[C@H](CCC(=O)O)NC(=O)CNC(=O)[C@H](CCC(=O)O)NC(=O)[C@H](CCC(=O)O)NC(=O)[C@H](CC(C)C)NC(=O)CNC(=O)[C@H](Cc1ccccc1)NC(=O)[C@H](Cc1c[nH]cn1)NC(=O)[C@H](Cc1ccc(O)cc1)NC(=O)[C@H](CC(=O)O)NC(=O)[C@H](CC(C)C)NC(=O)c1ccc2c(c1)C(=O)OC21c2ccc(O)cc2Oc2cc(O)ccc21)C(=O)N[C@@H](CCCNC(=N)N)C(=O)N[C@@H](CC(=O)O)C(=O)N[C@@H](CC(C)C)C(=O)N[C@@H](Cc1ccccc1)C(=O)N[C@@H](CC(=O)O)C(=O)O [Fluorescein-E2F, N-terminal amide link-age 5 carboxyfluorescein-E2F409-426, 18′mer] (5FAM-LDYHFGLEEGEGIRDLFD-OH; C-terminus assumed)
displacement of Fl-E7 from pRb [1]: does not displace E7 | Kd ([6]; pRb titration with fluoro-labelled peptide, one site binding model, read-out: Kd): 450 ± 70 nM

CC(C)C[C@H](NC(=O)[C@H](CCC(N)=O)NC(=O)[C@H](CCC(=O)O)NC(=O)[C@H](Cc1ccc(O)cc1)NC(=O)[C@H](CS)NC(=O)[C@H](Cc1ccc(O)cc1)NC(=O)[C@H](CC(C)C)NC(=O)[C@H](CC(=O)O)NC(=O)c1ccc2c(c1)C(=O)OC21c2ccc(O)cc2Oc2cc(O)ccc21)C(=O)N[C@@H](CC(N)=O)C(=O)O [Fluorescein-E7, N-terminal amide linkage Scarboxyfluorescein-E7, nonomer] (5FAM-DLYCYEQLN-OH; C-terminus assumed)
Kd [6]: 130 ± 20 nM

E2F(380-437): Synthetic peptide of E2F residues 380-437 (ADSLLEHVREDFSGLLPEEFISLSPPHEALDYHFGLEEGEGIRDLFDCDFGDLTPLDF; UniProt Q01094 380-437, looked up, fragment)
Kd [7]: 160 ± 10 nM | Kd [8]: 100 ± 10 nM

B1: E2F protein: E2F protein added as screen control that specifically disrupts binding; probably E2F(243-437) (protein, UniProt Q01094 243-437, looked up, fragment)
chain: LAYVTCQDLRSIADPAEQMVMVIKAPPETQLQAVDSSENFQISLKSKQGPIDVFLCPEETVGGISPGKTPSQEVTSEEENRATDSATIVSPPPSSPPSSLTTDPSQSLLSLEQEPLLSRMGSLRAPVDEDRLSPLVAADSLLEHVREDFSGLLPEEFISLSPPHEALDYHFGLEEGEGIRDLFDCDFGDLTPLDF
displacement of Fl-E2F from pRb (screen control) [9]: completely displaces F1-E2F
